Results taken from patent publication US20260109693A1, “BUTENOLIDE COMPOUNDS CONTAINING THIAZOLIDINONE STRUCTURE AS WELL AS PREPARATION METHOD THEREFOR AND USE THEREOF” (priority 2023, published 2026).

Test system: Fusarium graminearum strains resistant to phenamacril
Assay type: cell-based

5-(4-methyl-2-oxo-1-oxaspiro[4,5]-dec-3-en-3-ethylidene)-2-thio-4-thiazolidinone [Compound 3-1]
inhibition rate on resistant strains compared with standard strain (1 mg/L and 0.5 mg/L, resistant strains T10, T2-5, T32, T13, T12 vs standard strain 2021): the same as that of the standard wild-type Fusarium graminearum strain
growth inhibition of all resistant strains (50 mg/L, resistant strains T2-5, T10, T32, T18, T48, T79): completely inhibit the growth of all resistant strains
